US9408891B2, “Methods of using gelsolin to treat or prevent bacterial sepsis” (priority 2003, dated 2016)
Entries after “also recorded” stand apart in the source; their conditions may differ. Ends that are not written are not given here. * marks the point of attachment. RhodamineB = CCN(CC)c1ccc2c(-c3ccccc3C(=O)*)c3ccc(=[N+](CC)CC)cc-3oc2c1

Experiments:
gelsolin = gelsolin (Homo sapiens, UniProt P06396); assay: Actin severing activity of gelsolin (50 nM) with LTA or lysolipids; format: biochemical; conditions: for inhibition of gelsolin by lysolipids: lipid below 1 μM
Method: (§1) The tested gelsolin concentration was 50 nM; LTA ranged from 0-50 μM; Pyrene-F-actin was 0.3 μM. Recording changes in fluorescently-labeled (rhodamine B-labeled) gelsolin peptide PBP10 (10 μM), indicates a specific interaction between gelsolin and LTA.

[1] = target: T1, recombinant human gelsolin (rhGLS) (Homo sapiens, UniProt P06396); assay: Actin filament severing activity of purified gelsolin (pyrene F-actin depolymerization); format: biochemical; conditions: molar basis comparison
T1 construct: purchased Biogen IDEC, Inc., Cambridge, Mass; host or cells: E. coli
Method: To determine gelsolin's severing activity, rates of fluorescence decrease were evaluated during depolymerization. Monomeric G-actin was prepared from an acetone powder of rabbit skeletal muscle according to previously published methods (Spudich et al., J. Biol. Chem […]). The non-polymerizing solution contained 2 mM TRIS, 0.2 mM CaCl2, 0.5 mM ATP (adenosine triphosphate), 0.2 mM DTT (dithiothreitol) pH 7.4. Actin was polymerized by adding 150 mM KCl and 2 mM MgCl2 to the G-actin solutions and incubating for 1 hour at room temperature.
For F-actin severing assays, in general, a small volume (typically 5 μl) of the gelsolin composition is added to a similar volume of pyrene-labeled F-actin at a concentration adjusted to provide an actin:gelsolin ratio of approximately 10:1 (typically 1 μM gelsolin and 10 μM actin). This mixture is the diluted to 0.5 μM in a larger volume of F-actin buffer, and the filament severing efficiency is calculated from the initial slope of the fluorescence change. This reflects the rate of depolymerization that, in turn, is proportional to the number of cuts made by gelsolin. The LPS/gelsolin reaction can be done under any ionic condition, and the addition to F-actin requires the presence of […] Ca^2+ to activate the gelsolin. […] The actin nucleation reaction is similar except that in the latter case, the gelsolin/LPS mixture is added to a more dilute solution of G-actin (typically, 1 or 2 μM) in low ionic strength buffer followed immediately by addition of 150 mM KCI and 2 mM MgCl2 to initiate polymerization.
(§2) As shown, recombinant human gelsolin (rhGLS) (FIG. 4A) and blood serum (FIG. 4B) severing activity was measured in 0.4 μM pyrene-labeled F-actin samples (polymerized with 50% pyrene-labeled G-actin), after adding gelsolin (16 nM)/serum (2.5 μl), or their combination with one of the following: LPS (from different species), PIP2 (phosphatidyl-inositol-4,5-bisphosphate), LPA (lysophosphatidic acid), lipid A (the LPS derivative lacking polysaccharide) or PS (phosphatidylserine). The fluorescence intensity of F-pyrene actin was then monitored for 10 minutes, and the severing activity was calculated based on decreasing fluorescence. Severing activity was determined from a decrease in rate of fluorescence during depolymerization, and the depolymerization rate was calculated from the slope of the early decrease in fluorescence.

human platelets = assay: Collagen-induced aggregation of gel-filtered platelets; format: cell-based
Method: To isolate human platelets, blood from healthy volunteers was collected in acid-citrate dextrose. Platelet-rich plasma obtained after centrifugation (15 minutes, 110×g) at room temperature, was supplemented with apyrase (0.5 U/ml) (Sigma-Aldrich) to degrade excess nucleotides. Platelets were sedimented by centrifugation (10 minutes, 1000×g), suspended in buffer A (139 mM NaCl, 2.8 mM KCl, 0.8 mM MgCl2, 0.8 mM KH2PO4, 8.9 mM NaHCO3, 10 mM HEPES, 5.6 mM glucose, 0.3% albumin, pH 7.35) and filtered on a 50 ml column of Sepharose 2B to obtain gel-filtered platelets (GFP).
Platelet aggregation was initiated by adding collagen (10 μg/ml) (Chrono-Log Corp., Havertown, Pa.). Platelet aggregation was monitored using a Chronolog Lumi-Aggregometer (Chrono-Log Corp.). Changes in light transmission were recorded for 10 minutes, using a PowerLab/200 instrument and MacLab Chart program Version 3.2. When required before activation, the platelet suspension was reacted with LPS, or LPS-preincubated with the SEQ ID No:1 peptide (QRLFQVKGRR).

[2] = Neutron scattering of LPS with gelsolin peptide; format: physicochemical; conditions: preliminary neutron scattering
Text: The molecular structure of LPS and its complexes with proteins can be measured at nm resolution by X-ray and neutron scattering, as well as by electron and atomic force microscopy.
At present, the calculated diameter (36 nm) is greater than that which has been previously reported for pure LPS micelles, and the difference in size may reflect another structural feature. In additional experiments with more variations in gelsolin/LPS or peptide, LPS ratios will reveal if there are significant changes in LPS particle structure when these peptides bind LPS.

[3] = tested on: NF-κB translocation in rat primary astrocytes; assay: NF-κB translocation to the nucleus in astrocytes; format: cell-based; conditions: astrocytes, 2 hour; LPS 2 μM or TNF-α 10 ng/ml
Method: Rat primary astrocytes were obtained from prenatal rats and maintained for 14 days in culture before use. Embryos (E17-E19) were removed by caesarian section from a Sprague-Dawley rat and the hippocampi were surgically removed. The tissue was digested in trypsin/DNAse at 37° C., centrifuged (1000×5 min) and filtered to derive suspensions from each pup. Cells were grown in an incubator at 37° C. and 5% CO2 in DMEM (Dulbecco's Modified Eagle's Medium; BioWhittaker/Cambrex BioScience, East Rutherford, N.J.), supplemented with Ham's F12 (Sigma-Aldrich, St. Louis, Mo.) and 5% fetal bovine serum (FBS) (Hyclone, Logan, Utah) for 7 days, followed by an additional 7 days in Neurobasal medium (Gibco, Grand Island, N.Y.) also supplemented with 5% FBS, 2 mM l-glutamine, 50 μg/ml streptomycin and 50 U/ml penicillin. In each experiment, the medium was changed to serum-free at 6-12 hours prior to addition of LPS, TNF-α, or gelsolin.
HAECs and astrocytes cultures were incubated for 10 minutes in medium containing 10 μg/ml LPS alone, or LPS that had been pre-incubated with 0.16 mg/ml of human gelsolin. Cultures were fixed with ice-cold methanol and immunostained for F-actin with fluorescein isothiocyanate (FITC)-labeled phalloidin (Molecular Probes, Eugene, Oreg.). In astrocyte cultures, NF-κB translocation was manipulated by a 2 hour incubation in serum-free medium containing one of the following: 10 ng/ml TNF-α, 10 μg/ml LPS alone, or LPS that had been preincubated with 0.16 mg/ml human gelsolin. Location of transcription factor nuclear factor-kappaB (NF-κB) was observed using a monoclonal antibody to NF-κB (Molecular Probes), and cell nuclei were detected by counter-staining with 4′, 6-diamidino-2-phenylindole dihydrochloride (DAPI) (Sigma).

[4] = target: T2, PBP10 (PIP2-binding site of gelsolin) (Homo sapiens, UniProt P06396); assay: Rhodamine-B fluorescence change of gelsolin peptide PBP10 after adding lipids; conditions: for fluorescence quenching / change of rhodamine-B peptide: 2 μM peptide, buffer A pH 7.0, 15 min
T2 construct: made in house; host or cells: solid phase peptide synthesis
Method: (§3) Therefore, to determine changes of gelsolin OD at 280 nm, different amounts of LPS, LPA and PS were added to recombinant human gelsolin (rhGLS) solutions and OD emission spectra were recorded using spectrophotometer Genesys 6 (Thermo-Spectronic, USA).
Interaction of LPS and gelsolin was examined using rhodamine B- and pyrene-labeled SEQ ID No:1 (QRLFQVKGRR). The effect of LPS on gelsolin was determined in terms of the rhodamine-B fluorescent changes of PBP10 peptide in the presence of different lipids (FIG. 1C); and the fluorescence emission spectra of pyrene-labeled SEQ ID No:1 (2 μM) in the presence of LPS from Escherichia coli (1.2 μM), PIP2 (0.82 μM) and LPA (0.82 μM) (FIG. 1D) The results using the pyrene-derivatized gelsolin peptide confirmed the LPS induced clustering of the peptide with resulting excimer fluorescence of the pyrene group, which was evident as a large increase in fluorescence emission at 480 nm.
as §1

[5] = tested on: human neutrophils / human aortic endothelial cells (HAEC); assay: Neutrophil adhesion to LTA-stimulated HAEC; format: cell-based; conditions: LTA 10 μg/ml
Text: To investigate whether gelsolin can prevent gram-positive bacterial inflammation, the effect of LTA-mediated activation of human neutrophils was examined. Neutrophils were selected because their adhesion to human aorta endothelial cells (HAEC) is a hallmark of inflammation.
Neutrophils were isolated from human blood using the endotoxin-free Lympholyte-poly kit (Cedarlane, Ontario, Canada). The isolated neutrophil cells were resuspended in RPMI media. […] To quantify the adhesion, the neutrophils were labeled with calcein-AM (5 μM for 30 minutes at 37° C.).

[6] = target: T3, gelsolin activity in whole human serum (Homo sapiens, UniProt P06396); assay: Actin filament severing activity of whole human serum; format: biochemical; conditions: larger amounts needed than with pure gelsolin
T3 construct: from tissue; host or cells: whole human serum (2.5 µl)
Method: as §2

[7] = target: T1, recombinant human gelsolin (rhGLS); assay: Change of gelsolin OD at 280 nm after adding lipids; format: binding; conditions: OD 280 nm
Method: as §3

[8] = Solid phase binding of 3H-LPS to peptide-coated wells; parameters: species or system Salmonella minnesota; conditions: for binding of 3H-LPS to peptide-coated surfaces: solid phase, wells coated with peptide
Method: To provide chemical and functional evidence that gelsolin binds LPS through its lipid-binding domain, a solid phase assay was conducted in which radiolabeled LPS was added to wells coated with different amounts of rhodamine-B-labeled-SEQ ID No:1 (rhodamine-B-QRLFQVKGRR, derived from the PIP2-binding site of gelsolin and termed “PBP10”), or to a truncated peptide (rhodamine-B-QRL), in the absence or presence of unlabeled LPS, respectively.
Tritium-labeling of LPS was done by a modification of the procedure of Watson and Riblet (Watson et al., J. Immunol 114:1462-8 (1975)). A sample (2 mg) of LPS from Salmonella minnesota Re595 (Sigma Chemical Co., St. Louis, Mo.) was oxidized (150 minutes, 20° C.) with sodium periodate (3×10^−2 M). After destruction of the oxidant with 1.0 M ethylene glycol, aldehyde groups were reduced (18 hours at 4° C.) with an ice-cold solution of NaB [^3H]4 (0.46 GBq, 481 GBq/mmole, wherein GBq refers to a unit of radioactivity) (Amersham-Pharmacia Biotech, Buckinghamshire, England) in 200 μl of ice-cold borate buffer (0.05 M, pH 9.5). Excess sodium borohydride was destroyed with 5 μl of acetic acid. After two washings (centrifugation at 100,000×g for 15 minutes) in 400 μl of an ice-cold water-ethanol mixture (1:1 by vol.), the radiolabeled [^3H]-LPS (9×10^5 cpm/μg; 2×10^3 cpm/pmole) was stored at −20° C. until used.
To measure [^3H] labeled-LPS-binding, polystyrene ELISA-type microplates (96 wells) were coated with PBP10 or rhodamine-B-QRL (RhB-QRL) by incubation for 18 hours at 4° C. with a solution (100 μl, 500 pmole/well) in saline. After three washings with 100 μl saline, the wells were then incubated at room temperature with [^3H]-LPS (360,000 c.p.m.), in the presence or absence of unlabeled LPS (20 μg/well), in a binding medium (100 μl) containing bovine serum albumin (50 μg) in saline. After 3 hours of incubation, the plates were washed three times with 100 μl saline washes, and the remaining bound radioactivity was measured.

Chain of gelsolin (P06396 28-782): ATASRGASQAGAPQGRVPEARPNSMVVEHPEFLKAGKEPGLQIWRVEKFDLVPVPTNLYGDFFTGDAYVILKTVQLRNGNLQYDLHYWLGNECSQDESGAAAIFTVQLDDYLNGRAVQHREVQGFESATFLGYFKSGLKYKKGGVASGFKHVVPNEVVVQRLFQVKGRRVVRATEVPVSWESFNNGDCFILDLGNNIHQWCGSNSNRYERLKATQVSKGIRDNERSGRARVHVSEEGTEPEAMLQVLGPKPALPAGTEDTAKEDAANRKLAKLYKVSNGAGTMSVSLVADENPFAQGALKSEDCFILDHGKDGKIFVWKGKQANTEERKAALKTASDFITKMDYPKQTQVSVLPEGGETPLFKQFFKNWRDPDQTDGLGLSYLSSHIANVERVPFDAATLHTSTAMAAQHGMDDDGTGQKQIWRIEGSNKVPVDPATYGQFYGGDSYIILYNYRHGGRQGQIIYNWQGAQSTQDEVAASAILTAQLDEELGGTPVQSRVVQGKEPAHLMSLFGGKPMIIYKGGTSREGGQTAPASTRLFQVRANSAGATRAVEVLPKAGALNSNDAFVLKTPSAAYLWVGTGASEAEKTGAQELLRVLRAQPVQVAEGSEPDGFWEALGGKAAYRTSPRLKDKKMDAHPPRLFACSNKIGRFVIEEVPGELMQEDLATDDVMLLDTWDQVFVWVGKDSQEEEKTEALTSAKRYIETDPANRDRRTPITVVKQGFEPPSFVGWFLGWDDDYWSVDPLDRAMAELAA
T3 sequence (P06396 28-782): as above
T1 sequence (P06396 28-782): as above

CCCCCCCCCCCCC/C=C/[C@@H](O)[C@@H](N)COP(=O)(O)OCC[N+](C)(C)C [SPC, Sphingosylphosphocholine]
inhibition of gelsolin by lysolipids (gelsolin): at least as strongly as lysophosphatidic acid (LPA); also recorded: also inhibit gelsolin

Lipid A
inhibitory effect on severing activity of purified gelsolin [1]: weaker but still significant inhibitory effect; also recorded: weaker, but detectable inhibition; also recorded: weaker, but still significant inhibitory effect

QRLFQVKGRR (peptide fragment of gelsolin) [gelsolin SEQ ID No:1, Gelsolin residues 160-169 peptide]
reversal of LPS inhibition of collagen-induced platelet activation (human platelets; peptide added to LPS before addition to platelets, collagen 10 μg/ml): restored, in a peptide concentration-dependent manner | effect of peptide alone on collagen-mediated platelet functions (human platelets; without LPS): had no effect on collagen-mediated platelet functions | effect of peptide on calculated diameter of LPS [2]: small, but significant increase in calculated diameter of LPS

TNF-α
induction of NF-κB translocation to the nucleus [3]: caused NF-κB translocation to the nucleoplasm

lipoteichoic acid [LTA]
binding to PBP10 judged by changes in PBP10 fluorescence ([4]; PBP10 10 μM): approximately the same avidity as PIP2; also recorded: approximately the same efficiency as PIP2; also recorded: binds to the PIP2-binding site within the PBP10 peptide | stimulation of neutrophil binding to the endothelial surface [5]: stimulated binding of calcein AM-labeled neutrophils | inhibition of gelsolin's actin severing activity (gelsolin; LTA 0-50 μM, pyrene-F-actin 0.3 μM): nearly as well as LPS does; also recorded: potent inhibitor

lysophosphatidic acid [LPA]
inhibition of gelsolin activity in whole human serum [6]: much less effective in serum than in pure solution; also recorded: appeared to lack its effect in serum | inhibitory effect on severing activity of purified gelsolin [1]: strongly inhibited | effect on absorbance of gelsolin [7]: diminished the absorbance of gelsolin

phosphatidylinositol-4,5-bisphosphate [PIP2]
inhibition of gelsolin activity in whole human serum [6]: able to inhibit gelsolin activity | fluorescence quenching / change of rhodamine-B peptide [4]: induced identical concentration-dependent fluorescence quenching

platelet activating factor [PAF]
inhibition of gelsolin by lysolipids (gelsolin): do not inhibit gelsolin

rhodamine-B-QRL
binding of 3H-LPS to peptide-coated surfaces [8]: did not bind LPS | fluorescence quenching / change of rhodamine-B peptide [4]: no fluorescence change

rhodamine-B-QRLFQVKGRR (RhodamineB-QRLFQVKGRR) [PBP10]
reduction of 3H-LPS binding by excess unlabeled LPS ([8]; 5-fold excess of unlabeled LPS): approximately 50% | binding of 3H-LPS to peptide-coated surfaces [8]: saturably bound; also recorded: bound in a saturable manner | inhibition of labeled LPS binding in the presence of excess LPS ([8]; unlabeled LPS 20 μg/well): substantial inhibition
